{6-FAM} = 6-carboxyfluorescein label; {Dabcyl} = Dabcyl quencher
Columns and labels:
α-thrombin [1] = target: T1, α-thrombin (Homo sapiens, UniProt P00734); experiment: FRET-based signaling aptamer binding to α-thrombin (6-FAM quenching); details: 100 nM aptamer, 500 nM α-thrombin
T1 construct: Human oa-thrombin (M.W. ˜36.7 kDa); purchased Haematologic Technologies Inc. (Essex Junction, Vt.)
Excerpt: Dye-labeled aptamers were obtained from Integrated DNA Technologies, Inc. (Coralville, Iowa). The sequences of the 15mer and 27mer thrombin-aptamer are 5′-GGT TGG TGT GGT TGG-3′ (SEQ ID NO 1), and 5′-ACCCGTGGTAGGGTAGGATGGGGTGGT-3′ (SEQ ID NO 2) respectively. For FRET-based assays, both aptamers were dual-labeled with 6-FAM at the 5′ end and Dabcyl at the 3′ end. For fluorescence anisotropy assays, both aptamer sequences were labeled with only TAMRA at the 3′ end. A control 15mer aptamer was labeled with only 6-FAM at the 3′ end. All aptamers were purified with HPLC. […]
Fluorescence measurements were performed on a Fluorolog-3 spectrofluorometer (Jobin Yvon Inc., Edison, N.J.). For FRET-based assays, the fluorescence of 6-FAM was monitored with an excitation wavelength of 488 mn and an emission wavelength of 515 nm. For anisotropy-based experiments, the fluorescence of TAMRA was monitored with 555 nm as the excitation and 580 mn as the emission wavelength. […] In the aptamer/thrombin binding experiments, a very small volume of α-thrombin at a high concentration was added to an aptamer solution in the cuvette to make a molar ratio of aptamer and thrombin 1:1, and the fluorescence signals were recorded before and after the addition. […]

thrombin = target: T2, thrombin (Homo sapiens, UniProt P00734); experiment: Kinetic studies of competitive assays (order of incubation, concentration dependence); assay type: binding; details: 100 nM FQ-15Ap, 100 nM thrombin, 500 nM HirF, 5° C., 6-FAM fluorescence
T2 construct: Human oa-thrombin (M.W. ˜36.7 kDa); purchased Haematologic Technologies Inc. (Essex Junction, Vt.)
Description: Experiments were conducted in a 100 μL cuvette in the spectrofluorometer. While the detection system was running, the reaction samples were quickly mixed together. Data were recorded from the point of mixing to when the signal reached the plateau and stabilized. The reaction was regarded completed when the signal was at the plateau. […] The temperatures of reactions were maintained using a RTE-111 water bath/circulator (Neslab Instruments, Inc., Newington, N.H.).
In order to evaluate the possibilities of such false negatives in the assays, a comparison of the reaction rates of aptamer and prey proteins with thrombin were conducted. One direct way to conduct the comparison is to change the order the aptamer and the prey protein are incubated with thrombin. In one experiment, the prey protein was incubated with thrombin first and then the aptamer was used to displace the prey protein from the thrombin/protein complex. In another experiment, the order of adding aptamer and prey protein to thrombin was reversed. […]
Another indirect method was also used to study the effects of aptamer on thrombin/protein interactions. […] Different concentrations of AT3 were added to thrombin/T-15Ap incubation solution and the anisotropy of the aptamer was monitored as AT3 would displace T-15Ap.

α-thrombin [2] = target: T1, α-thrombin; details: stated as known property; cited from earlier work
α-thrombin [3] = target: T1, α-thrombin; details: reported value used for the calculation; read-out: reported 15mer aptamer-thrombin Kd/AT; cited from earlier work
α-thrombin [4] = target: T1, α-thrombin; experiment: Fluorescence anisotropy of TAMRA-labeled aptamer on binding α-thrombin; details: aptamer/α-thrombin 1:1
Description: Fluorescence measurements were performed on a Fluorolog-3 spectrofluorometer (Jobin Yvon Inc., Edison, N.J.). For FRET-based assays, the fluorescence of 6-FAM was monitored with an excitation wavelength of 488 mn and an emission wavelength of 515 nm. For anisotropy-based experiments, the fluorescence of TAMRA was monitored with 555 nm as the excitation and 580 mn as the emission wavelength. Slit widths were varied to yield the best signals. All measurements were carried out in a 100 μL cuvette. In the aptamer/thrombin binding experiments, a very small volume of α-thrombin at a high concentration was added to an aptamer solution in the cuvette to make a molar ratio of aptamer and thrombin 1:1, and the fluorescence signals were recorded before and after the addition. […]
where the subscripts V and H refer to the orientation (vertical or horizontal) of the polarizers for the intensity measurements, with the first subscript indicating the position of the excitation polarizer and the second for the emission polarizer. G is the G-factor of the spectrofluorometer, which is calculated as G=IHV/IHH. […] For a certain dye, the G-factor would be measured and used throughout the experiments that used the same dye. […] For TAMRA, all intensities were measured at an emission wavelength of 580 nm with an excitation wavelength of 555 nm. […]

5′-(6-FAM)-ACCCGTGGTAGGGTAGGATGGGGTGGT-(Dabcyl)-3′ [FQ-27Ap]
6-FAM fluorescence change upon addition of α-thrombin (α-thrombin [1]): decreased 6-FAM fluorescence

5′-(6-FAM)-GGT TGG TGT GGT TGG-(Dabcyl)-3′ (DNA GGTTGGTGTGGTTGG; DNA, 5' {6-FAM}, 3' {Dabcyl}, backbone not given here) [FQ-15Ap, 15mer thrombin aptamer dual-labeled with 6-FAM at the 5′ end and Dabcyl at the 3′ end]
kinetic profile depending on order of incubation with thrombin (thrombin): aptamer replacing HirF was even slower than HirF replacing aptamer | drop of 6-FAM fluorescence when excess α-thrombin was added (α-thrombin [1]; room temperature, 50 mM NaCl buffer): about 55%

5′-ACCCGTGGTAGGGTAGGATGGGGTGGT-3′ (DNA ACCCGTGGTAGGGTAGGATGGGGTGGT; chemistry not given here) [27Ap]
capability to inhibit the enzymatic activity of thrombin (α-thrombin [2]): does not

5′-GGT TGG TGT GGT TGG-3′ [15Ap]
Kd (α-thrombin [3]): 75 nM | capability to inhibit the enzymatic activity of thrombin (α-thrombin [2]): has the protein-inhibition capability

5′-GGT TGG TGT GGT TGG-(TAMRA)-3′ [T-15Ap]
increase of anisotropy on mixing with α-thrombin (α-thrombin [4]): more than 30%

Reference: patent publication US20090208936A1, “IDENTIFICATION OF MOLECULAR INTERACTIONS AND THERAPEUTIC USES THEREOF” (Univeristy of Florida Research Foundations Inc., priority 2005, published 2009)
